{"source": "patent EP1542016A1", "about": "“PUMA, phosphorylated p53 and p38 map kinase as markers for HIV-1-induced apoptosis in circulating T cells of infected patient” (Institut Gustave Roussy, priority 2003, dated 2005)", "key": {"U937 cells": {"system": "U937 cells", "assay": "Induction of Puma in U937 cells co-cultured with HeLa Env cells", "type": "cell-based", "parameters": "dose or concentration left out as unconfirmed", "details": "36 hours, Fig. 8A", "description": "Figure 8A. Induction of Puma in U937 cells co-cultured with HeLa Env cells. U937 cells were mixed at different ratios with HeLa Env cells, just before the preparation of cell lysates for immunoblot detection of Puma (Control) or coculture for 36 hours, in the absence or presence of the p53 inhibitor cyclic pifithrin α […]. The percentage of dead U937 cells was determined by trypan blue exclusion.\n(§1) HeLa cells stably transfected with the Env gene of HIV-1 LAI (HeLa Env) and HeLa cells transfected with CD4 (HeLa CD4) were cocultured at a 1:1 ratio (6), in DMEM medium supplemented with 10 % FCS, L-glutamine, in the absence or presence of roscovitin (1 µM), rapamycin (1 µM, Sigma), cyclic pifithrin-α (10 µM), MG132 (5 µM, Calbiochem), the NF-κB-inhibitory peptide SN50, or its negative control SN50M (20 µM, Biomol). HeLa/U937 cell co-cultures were performed at different ratios (6). U937 or Jurkat cells were cultured with recombinant gp120 protein (500 ng/ml).\nProtein samples were prepared from HeLa Env and HeLa CD4 single cells mixed at a 1:1 ratio in lysis buffer (single cells control) or from HeLa Env/CD4 syncytia. Proteins samples from HeLa Env and U937 mixed at different ratios were also prepared and subjected to immunoblot analysis. […]"}, "Env-induced syncytia": {"system": "Env-induced syncytia", "details": "cited from earlier work"}, "Jurkat cells": {"system": "Jurkat cells", "assay": "Apoptosis and Puma induction by recombinant gp120 protein in Jurkat cells", "type": "cell-based", "details": "four days, gp120 500 ng/ml, cyclic pifithrin-α 10 µM, Fig. 8E", "description": "Figure 8D. Induction of Puma by recombinant gp120 protein in Jurkat cells (as in figure 8B).\nFigure 8E. Effect of cyclic pifithrin-alpha. Jurkat cells were treated for four days with gp120 protein (500 ng/ml) and or cyclic pifithrin-α (10 µM), followed by determination of Puma expression.\nas §1"}}}
{"smiles": "Cc1ccc(-c2cn3c4c(sc3n2)CCCC4)cc1", "note": "[pifithrin-α, cyclic pifithrin-α]", "values": [{"measurement": "upregulation of Puma", "setting": "U937 cells", "value": "not inhibited"}, {"measurement": "syncytium-dependent cell death", "setting": "Env-induced syncytia; reference (5)", "value": "blocked"}, {"measurement": "Env-induced upregulation of Bax", "setting": "Env-induced syncytia; references (5, 7)", "value": "prevents"}, {"measurement": "syncytial cell death", "setting": "Env-induced syncytia; references (5, 7)", "value": "retards"}, {"measurement": "gp120-induced apoptosis and Puma expression", "setting": "Jurkat cells", "value": "strongly inhibited"}]}
